BigSolDB 2.1

CC(C)(C)OC(=O)N[C@@H](CCCN=C(N)N[N+](=O)[O-])C(=O)O
solubility (mole fraction)
Conditions	283.15 K	288.15 K	293.15 K	298.15 K	303.15 K	308.15 K	313.15 K	318.15 K	323.15 K
in DMF	0.164	0.185	0.211	0.246	0.29	0.346	0.415	0.505	0.62
in acetonitrile	0.0012	0.00144	0.00168	0.00193	0.00222	0.00262	0.00324	0.00392	0.00491
in ethanol	0.015	0.0188	0.0234	0.0282	0.0327	0.0391	0.0469	0.0563	0.0666
in ethyl acetate	0.000705	0.000846	0.000955	0.00104	0.00114	0.0013	0.00147	0.00161	0.00187
in isobutanol	0.00231	0.00296	0.00394	0.00499	0.00618	0.00799	0.00954	0.0112	0.0143
in isopropanol	0.00489	0.0067	0.00844	0.0102	0.0127	0.0152	0.0184	0.0224	0.0267
in methanol	0.042	0.0507	0.0601	0.0692	0.0752	0.0824	0.0908	0.0976	0.111
in n-butanol	0.00377	0.00498	0.00583	0.00707	0.00842	0.00996	0.0121	0.0142	0.0172
in n-pentanol	0.00254	0.00351	0.0042	0.00489	0.00595	0.00735	0.00886	0.0106	0.013
in n-propanol	0.00543	0.00744	0.00919	0.0114	0.0132	0.0161	0.0195	0.0236	0.0285
in sec-butanol	0.00398	0.00546	0.00729	0.00896	0.0113	0.0138	0.0162	0.0192	0.0222
in water	0.000283	0.000334	0.000356	0.000404	0.000471	0.000522	0.000643	0.000799	0.000986
